In US20220296573A1, “NOVEL COMPOUNDS AND PHARMACEUTICAL COMPOSITIONS THEREOF FOR THE TREATMENT OF INFLAMMATORY DISORDERS” (Galapagos NV, priority 2019, published 2022) one finds IC50 data, which are given here for 10 compounds.

SMILES strings stand for the structures.

This assay concerns CL097 triggered IFNα release in human whole blood. Briefly: Ex vivo human IFNα release inhibition (whole blood assay). Type of assay: cell-based. As to conditions: CL097 2 μg/mL, 3 h 30 min. An excerpt:
The aim of the assay is to evaluate the activity of compounds of the invention on the activated TLR/IRAK-4 pathway in an ex vivo human whole blood setting. Toll-like receptors (TLRs) are pattern recognition receptors that recognize a wide variety of microbial molecules, called pathogen-associated molecular patterns (PAMPs). Human TLR7 and TLR8 recognize imidazoquinoline compounds (e.g., CL097—CAS n #1026249-18-2) and single stranded RNAs as their natural ligands. Activation of TLRs leads to the production of several cytokines (e.g., IFNα, TNFα, IL-8, IL-6) by the TLR agonist-treated cells, whereas IRAK4 leads to the production of IFNα. Cytokine release is used as readout in this assay and represents a measure for the level of inhibition of the TLR/IRAK-4 pathway by the tested compound. It should be noted that in the context of the complete organism, other sources for these cytokines exist that are not dependent on the TLR/IRAK-4 pathway, such as e.g., macrophages (upon activation of the Fcγ receptor (Yan et al. 2012)) or T cells (upon activation of the T cell receptor (Brehm, Daniels, and Welsh 2005)).
Blood is collected from healthy volunteers into lithium heparin tubes by venipuncture, then gently inverted several times to prevent clotting and incubated for at least 15 min at 37° C. on a rocking mixer shaker. Then, 100 μL of blood is dispensed into polypropylene 96-well microplate and pre-incubated in duplicate with 0.3% DMSO or test compound at different concentrations (from 30 to 0.01 μM, 3-fold dilutions to get 0.3% DMSO at the final) for 15 min at 37° C. After this pre-incubation, blood is triggered with CL097 (2 μg/mL from 1 mg/mL solution in water; InvivoGen, tlr1-c97) for 3 h 30 min at 37° C. Microtubes are centrifuged at 5000×g for 10 min at 4° C. and approximately 40 μL of plasma are collected into a polystyrene 96-well plate. Plasma can be analyzed freshly, within 30 min after triggering, or frozen at −80° C. Finally, the quantification of IFNα and IFNα were performed in the plasma using AlphaLISA Kit for […] according to the manufacturer's instructions and read on the Ensight (PerkinElmer).
A standard curve was created by plotting on log-log the mean absorbance on the y-axis against the concentration on the x-axis and a 4PL was made through the points. For each blood sample, the IFNα concentrations of the samples were determined from the fit.
Data were then expressed as a percentage of inhibition (PIN) for each replicate using the formula:
With mean IFNα with CL097=mean IFNα concentration of replicate samples triggered with CL097; IFNαsample1=IFNα concentration of sample 1; mean IFNα with vehicle=mean IFNα concentration of replicate samples treated with vehicle.
Curve fitting for pIC50 determination were generated using mean PIN±sem. Graphs and pIC50 calculations were derived using Prism 5.03 software (GraphPad).
In the case of `COc1cc2nc(C3COCCO3)cn2cc1NC(=O)c1cccn(C2CC2)c1=O` (racemic) [Compound 1, 1-cyclopropyl-N-[2-(1,4-dioxan-2-yl)-7-methoxy-imidazo[1,2-a]pyridin-6-yl]-2-oxo-pyridine-3-carboxamide], the IC50 was 0.1 to 500 nM.

Take `COc1cc2nc(C3COCCO3)cn2cc1NC(=O)c1cccn(C2CC2)c1=O` (single isomer, unassigned) [Compound 7, 1-cyclopropyl-N-[2-(1,4-dioxan-2-yl)-7-methoxy-imidazo[1,2-a]pyridin-6-yl]-2-oxo-pyridine-3-carboxamide]: the half-inhibitory concentration (IC50) lay in the range of 0.1 to 500 nM.

For `COc1cc2nc(C3COCCO3)cn2cc1NC(=O)c1cccn(C2CC2)c1=O` (single isomer, unassigned) [Compound 8, 1-cyclopropyl-N-[2-(1,4-dioxan-2-yl)-7-methoxy-imidazo[1,2-a]pyridin-6-yl]-2-oxo-pyridine-3-carboxamide], the IC50 was in the range of 0.1 to 500 nM. Compound `COc1cc2nc(C3CCOCC3)cn2cc1NC(=O)c1cccc(C(F)(F)F)n1` [Compound 2, N-(7-methoxy-2-tetrahydropyran-4-yl-imidazo[1,2-a]pyridin-6-yl)-6-(trifluoromethyl)pyridine-2-carboxamide] gave an IC50 of over 5000 nM. For `COc1cc2nc(C3CCOCC3)cn2cc1NC(=O)c1cccn(C2CC2)c1=O` [Compound 3, (1-cyclopropyl-N-[7-methoxy-2-(oxan-4-yl)imidazo[1,2-a]pyridin-6-yl]-2-oxopyridine-3-carboxamide)] the value was 500 to 1000 nM. As for `COc1cc2nc(C3COCCO3)cn2cc1NC(=O)c1cccn(C2CCC2)c1=O` (stereo not shown) [Compound 5, 1-cyclobutyl-N-[2-(1,4-dioxan-2-yl)-7-methoxy-imidazo[1,2-a]pyridin-6-yl]-2-oxo-pyridine-3-carboxamide], the figure is 1000 to 5000 nM; as for `NC(=O)c1cc2nc(C3COCCO3)cn2cc1NC(=O)c1cccc(C(F)(F)F)n1` (stereo not shown) [Compound 6, 2-(1,4-dioxan-2-yl)-6-[[6-(trifluoromethyl)pyridine-2-carbonyl]amino]imidazo[1,2-a]pyridine-7-carboxamide], 1000 to 5000 nM; as for `CNC(=O)c1cc2nc(C3COCCO3)cn2cc1NC(=O)c1cccc(C(F)(F)F)n1` (stereo not shown) [Compound 9, 2-(1,4-dioxan-2-yl)-N-methyl-6-(6-(trifluoromethyl)picolinamido)imidazo[1,2-a]pyridine-7-carboxamide], 1000 to 5000 nM. As for `CC(F)(F)c1cccc(C(=O)Nc2cn3cc(C4COCCO4)nc3cc2C(N)=O)n1` (stereo not shown) [Compound 11, 6-(6-(1,1-difluoroethyl)picolinamido)-2-(1,4-dioxan-2-yl)imidazo[1,2-a]pyridine-7-carboxamide], the figure is 500 to 1000 nM. `COc1cc2nc(C3CCS(=O)(=O)CC3)cn2cc1NC(=O)c1cccn(C2CC2)c1=O` [Compound 23, 1-cyclopropyl-N-(2-(1,1-dioxidotetrahydro-2H-thiopyran-4-yl)-7-methoxyimidazo[1,2-a]pyridin-6-yl)-2-oxo-1,2-dihydropyridine-3-carboxamide] came in with a half-maximal inhibitory concentration (IC50) of 0.1 to 500 nM.
